In US7179813B2, “Bicyclic indolyl derivatives and methods for their use as serotonergic agents” (Wyeth, priority 2003, dated 2007):
Where a name gives a salt, the structure may show the parent alone. Read-outs that look alike come from different tables or passages of the source. Blank lines part the entries; values can stand above or below the compound they belong to.

What was measured:
[1] = animal models; cited from earlier work
[2] = tested on: marmosets; conditions: cited from earlier work
[3] = in vivo; cited from earlier work
[4] = target: T1, human 5-HT1A receptor (Homo sapiens, UniProt P08908); assay: Antagonism of 8-OH-DPAT inhibition of forskolin-stimulated cyclic-AMP turnover in transfected CHO cells; assay type: cell-based; conditions: CHO cells with human 5-HT1A receptor, read-out: cAMP IC50
T1 construct: expressed in transfected cells; host or cells: CHO cells (stably transfected)
T1 sequence (P08908 1-422): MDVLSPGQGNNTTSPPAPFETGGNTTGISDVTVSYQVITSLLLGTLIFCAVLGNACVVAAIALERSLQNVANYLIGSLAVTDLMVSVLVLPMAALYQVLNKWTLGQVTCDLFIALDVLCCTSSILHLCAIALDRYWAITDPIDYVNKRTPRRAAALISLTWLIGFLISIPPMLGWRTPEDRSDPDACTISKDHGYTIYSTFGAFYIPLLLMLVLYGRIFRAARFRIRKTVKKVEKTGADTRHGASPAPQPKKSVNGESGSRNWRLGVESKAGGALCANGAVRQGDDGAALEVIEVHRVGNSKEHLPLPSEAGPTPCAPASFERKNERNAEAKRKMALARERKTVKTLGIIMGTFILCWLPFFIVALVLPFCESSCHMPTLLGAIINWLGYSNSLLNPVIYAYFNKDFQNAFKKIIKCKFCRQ

[5] = target: T1, human 5-HT1A receptor; assay: Serotonin 5-HT1A binding, displacement of [3H]8-OH-DPAT; conditions: [3H]8-OH-DPAT displacement, CHO cells stably transfected with human 5-HT1A receptor
Text: Affinity for the serotonin 5-HT1A receptor was established by assaying the test compound's ability to displace [^3H]8-OH-DPAT from its binding site on the receptor complex in CHO cells stably transfected with the human 5-HT1A receptor following the procedure described by Dunlop et al., J. PharmacoL ToxicoL Methods 1998, 40, 47.

[6] = cited from earlier work
[7] = tested on: PC3 cell line; conditions: athymic nude mice; cited from earlier work
[8] = tested on: DU-145; conditions: DU-145, in vitro; cited from earlier work
[9] = tested on: PC3; conditions: PC3, in vitro; cited from earlier work
[10] = tested on: LNCaP; conditions: in vitro; cited from earlier work

Compound: COc1ccccc1N1CCN(CC[C@](C)(C(=O)C2CCCCC2)c2ccccc2)CC1 [LY 426965]
- anxiogenic behaviors induced by nicotine withdrawal [1]: blocked

Compound: COc1ccccc1N1CCN(CCN(C(=O)C2CCCCC2)c2ccccn2)CC1 [WAY-100635]
- cognitive deficits induced by fomix lesions [2]: reversed the cognitive deficits
- anxiogenic behaviors induced by nicotine withdrawal [1]: blocked

- melting point: 176 to 179 °C
Compound: C[C@H](CN(C(=O)C1C2CCC1CC2)c1ccccn1)N1CCN(c2cccc3[nH]ccc23)CC1 (stereo partly drawn) (as salt: hydrochloride) [Example 3, N-{(2R)-2-[4-(1H-Indol-4-yl)piperazin-1-yl]propyl}-N-pyridin-2-yl-bicyclo[2.2.1]heptane-7-carboxamide]

Compound: COc1ccccc1N1CCN(CC(C(=O)NC(C)(C)C)c2ccccc2)CC1 (centres unmarked) [WAY-100135]
- impairment of spatial learning caused by intrahippocampal scopolamine [3]: prevented the impairment of spatial learning

- IC50 [4]: 4.1 nM
- Ki [5]: 0.68 nM
Compound: C[C@H](CN(C(=O)[C@H]1CC2CCC1CC2)c1ccccn1)N1CCN(c2cccc3[nH]ccc23)CC1 [Example 1, (S)-N-{(2R)-2-[4-(1H-Indol-4-yl)piperazin-1-yl]propyl}-N-pyridin-2-yl-bicyclo[2.2.2]octane-2-carboxamide]

Compound: COc1ccccc1N1CCN(CCCCN2C(=O)c3ccccc3C2=O)CC1 [NAN-190]
- anxiogenic behaviors induced by nicotine withdrawal [1]: blocked

- IC50 [4]: 6.7 nM
- Ki [5]: 0.45 nM
Compound: C[C@H](CN(C(=O)C1(C)C2CCC1CC2)c1ccccn1)N1CCN(c2cccc3[nH]ccc23)CC1 (stereo partly drawn) [Example 4, N-{(2R)-2-[4-(1H-indol-4-yl)piperazin-1-yl]propyl}-7-methyl-N-pyridin-2-yl-bicyclo[2.2.1]heptane-7-carboxamide]

Compound: CC(C)NCC(O)COc1cccc2[nH]ccc12 (centres unmarked) [pindolol]
- median time needed to achieve a sustained antidepressant response ([6]; co-administered with the SSRI fluoxetine): significantly reduced the median time
- median time needed to achieve a sustained antidepressant response ([6]; co-administered with the SSRI paroxetine): significantly reduced the median time

- melting point: 236 to 238 °C
Compound: C[C@H](CN(C(=O)C1(C)C2CCC1CC2)c1ccccn1)N1CCN(c2cccc3[nH]ccc23)CC1 (stereo partly drawn) (as salt: hydrochloride) [Example 4, N-{(2R)-2-[4-(1H-indol-4-yl)piperazin-1-yl]propyl}-7-methyl-N-pyridin-2-yl-bicyclo[2.2.1]heptane-7-carboxamide]

Compound: OC(CNC1CCCCC1)COc1cccc2[nH]ccc12 (centres unmarked) [LY206130]
- anxiogenic behaviors induced by nicotine withdrawal [1]: blocked

Compound: pindobind
- growth of the PC3 cell line in vivo [7]: inhibited the growth
- antineoplastic activity [8]: antineoplastic activity
- antineoplastic activity [9]: antineoplastic activity
- antineoplastic activity [10]: antineoplastic activity

- IC50 [4]: 2.2 nM
- Ki [5]: 0.69 nM
Compound: C[C@H](CN(C(=O)[C@@H]1CC2CCC1CC2)c1ccccn1)N1CCN(c2cccc3[nH]ccc23)CC1 [Example 2, (R)-N-[(2R)-2-[4-(1H-Indol-4-yl)-1-piperazinyl]propyl]-N-2-pyridin-2-yl-bicyclo[2.2.2]octane-2-carboxamide]

- IC50 [4]: 74.5 nM
- Ki [5]: 0.98 nM
Compound: C[C@H](CN(C(=O)C1C2CCC1CC2)c1ccccn1)N1CCN(c2cccc3[nH]ccc23)CC1 (stereo partly drawn) [Example 3, N-{(2R)-2-[4-(1H-Indol-4-yl)piperazin-1-yl]propyl}-N-pyridin-2-yl-bicyclo[2.2.1]heptane-7-carboxamide]

- melting point: 180 to 182 °C
Compound: C[C@H](CN(C(=O)[C@H]1CC2CCC1CC2)c1ccccn1)N1CCN(c2cccc3[nH]ccc23)CC1 (as salt: hydrochloride) [Example 1, (S)-N-{(2R)-2-[4-(1H-Indol-4-yl)piperazin-1-yl]propyl}-N-pyridin-2-yl-bicyclo[2.2.2]octane-2-carboxamide]
